Experimental data from ChEMBL document CHEMBL5154926, “Discovery of a Novel Series of Imipridone Compounds as Homo sapiens Caseinolytic Protease P Agonists with Potent Antitumor Activities In Vitro and In Vivo” (J Med Chem, 2022).
Values after ≈ are worked out from the molar mass of the structure shown.

What was measured:
[1] = molecular target: ATP-dependent Clp protease proteolytic subunit, mitochondrial (Homo sapiens, UniProt Q16740); assay: Agonist activity at human CLpP (57 to 277 amino acids) expressed in Escherichia coli using fluorogenic peptide AC-WLA-AMC as substrate incubated for 10 mins by fluorescence based assay
HCT-116 = assay: cells; details: Homo sapiens, HCT-116, 48 h
Description: Antiproliferative activity against human HCT-116 cells incubated for 48 hrs by CCK-8 assay

HT-29 = assay: cells; details: Homo sapiens, HT-29, 48 h
Description: Antiproliferative activity against human HT-29 cells incubated for 48 hrs by CCK-8 assay

SW-620 = assay: cells; details: Homo sapiens, SW-620, 48 h
Description: Antiproliferative activity against human SW-620 cells incubated for 48 hrs by CCK-8 assay

DLD-1 = assay: cells; details: Homo sapiens, DLD-1, 48 h
Description: Antiproliferative activity against human DLD-1 cells incubated for 48 hrs by CCK-8 assay

HCT-15 = assay: cells; details: Homo sapiens, HCT-15, 48 h
Description: Antiproliferative activity against human HCT-15 cells incubated for 48 hrs by CCK-8 assay

SW480 = assay: cells; details: Homo sapiens, SW480, 48 h
Description: Antiproliferative activity against human SW480 cells incubated for 48 hrs by CCK-8 assay

[2] = 1-octanol/water partition coefficient, log P of the compound agitated for 4 hrs measured by shake flask assay based HPLC analysis; assay type: physicochemical
[3] = Aqueous solubility of the compound agitated for 24 hrs by HPLC analysis; assay type: physicochemical; details: buffer
[4] = Stability in rat liver microsomes assessed as half life at 1.5 uM measured upto 90 mins in presence of NADPH by LC/MS analysis; assay type: ADME, Microsome; details: 1.5 h
[5] = Stability in human liver microsomes assessed as intrinsic clearance at 1.5 uM measured upto 90 mins in presence of NADPH by LC/MS analysis; assay type: ADME, Microsome; details: read-out: CLH
[6] = Stability in human liver microsomes assessed as half life at 1.5 uM measured upto 90 mins in presence of NADPH by LC/MS analysis; assay type: ADME, Microsome; details: microsomes, 1.5 h, 1.5 µM

Sequence of ATP-dependent Clp protease proteolytic subunit, mitochondrial (Q16740 whole entry, the tested form may be a part): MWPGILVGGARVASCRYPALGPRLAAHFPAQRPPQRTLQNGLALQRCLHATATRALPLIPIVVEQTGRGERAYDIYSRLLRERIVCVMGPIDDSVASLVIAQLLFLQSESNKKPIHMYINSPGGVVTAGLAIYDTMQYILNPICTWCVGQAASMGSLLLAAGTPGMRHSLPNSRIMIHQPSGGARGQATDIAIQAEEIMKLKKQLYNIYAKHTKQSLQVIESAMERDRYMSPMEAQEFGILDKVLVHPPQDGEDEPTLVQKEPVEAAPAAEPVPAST

SMILES	EC50 [1] [nM]	IC50 (HCT-116) [nM]	other results
Cc1ccccc1CN1CCn2c1nc(=O)c1c2CCN(CC(C)C)C1	> 10000	> 10000	–
CCN1CCc2c(c(=O)nc3n2CCN3Cc2ccccc2C)C1	> 10000	> 10000	–
COc1cccc(CN2CCn3c2nc(=O)c2c3CCN(Cc3ccccc3)C2)c1	100	1200	–
O=c1nc2n(c3c1CN(Cc1ccccc1)CC3)CCN2Cc1ccc2ccccc2c1	360	310	–
O=c1nc2n(c3c1CN(Cc1ccccc1)CC3)CCN2CC1CCCCC1	130	2460	–
Cc1ccccc1CN1CCn2c1nc(=O)c1c2CCN(CCCCc2ccccc2)C1	> 10000	> 10000	–
COc1ccccc1CN1CCn2c1nc(=O)c1c2CCN(Cc2ccccc2)C1	110	1340	–
Cc1ccccc1CN1CCn2c1nc(=O)c1c2CCN(Cc2ccc(F)cc2F)C1	980	> 10000	–
O=c1nc2n(c3c1CN(Cc1ccccc1)CC3)CCN2Cc1ccc(F)c(F)c1	300	100	IC50 (HT-29): 50 nM; IC50 (SW-620): 150 nM; IC50 (DLD-1): 150 nM; IC50 (HCT-15): 200 nM; IC50 (SW480): 120 nM
Cc1ccccc1CN1CCn2c1nc(=O)c1c2CCN(Cc2ccc(F)c(F)c2)C1	320	5000	–
O=c1nc2n(c3c1CN(Cc1ccccc1)CC3)CCN2Cc1ccccc1F	440	290	–
O=c1nc2n(c3c1CN(Cc1ccccc1)CC3)CCN2Cc1ccccc1Cl	190	310	–
O=c1nc2n(c3c1CN(Cc1ccccc1)CC3)CCN2CC1CC1	1220	> 10000	–
Cc1ccccc1CN1CCn2c1nc(=O)c1c2CCN(C(=O)Cc2ccccc2)C1	> 10000	> 10000	–
Cc1ccccc1CN1C(=O)C2=C(CCN(Cc3ccccc3)C2)N2CCN=C12 [DORDAVIPRONE]	–	–	logP at 4 h [2]: 2.93; solubility at 24 h [3]: 200 µM (≈ 77.4 µg/mL); t1/2 [4]: 10.5 min; CLint scaled at 1.5 µM [5]: 187 mL/min/kg
O=c1nc2n(c3c1CN(Cc1ccccc1)CC3)CCN2Cc1cccnc1	1040	> 10000	–
Cc1cccc(CN2CCn3c2nc(=O)c2c3CCN(Cc3ccccc3)C2)c1	390	300	–
Cc1ccccc1CN1CCn2c1nc(=O)c1c2CCN(Cc2ccncc2)C1	1610	> 10000	–
Cc1ccc(CN2CCn3c2nc(=O)c2c3CCN(Cc3ccccc3)C2)cc1	320	210	–
Cc1ccccc1CN1CCn2c1nc(=O)c1c2CCN(Cc2ccc(F)cc2)C1	640	10000	–
Cc1ccc(CN2CCc3c(c(=O)nc4n3CCN4Cc3ccccc3C)C2)cc1	640	5310	–
O=c1nc2n(c3c1CN(Cc1ccccc1)CC3)CCN2Cc1ccccc1	120	520	–
O=c1nc2n(c3c1CN(Cc1ccccc1)CC3)CCN2Cc1ccc(C(F)(F)F)cc1	290	320	–
Cc1ccccc1CN1CCn2c1nc(=O)c1c2C(F)(F)CN(Cc2ccccc2)C1	500	5100	–
O=c1nc2n(c3c1CN(Cc1ccccc1)CC3)CCN2Cc1cccc(F)c1	260	220	–
Cc1ccccc1CN1CCCn2c1nc(=O)c1c2CCN(Cc2ccccc2)C1	3520	> 10000	–

SMILES	EC50 [1] [nM]	IC50 (HCT-116) [nM]	other results
O=c1nc2n(c3c1CN(Cc1ccccc1)CC3)CCN2Cc1cccc(Cl)c1	280	190	–
O=c1nc2n(c3c1CN(Cc1ccccc1)CC3)CCN2Cc1ccc(Cl)cc1	300	80	IC50 (HT-29): 70 nM; IC50 (SW-620): 170 nM; IC50 (DLD-1): 100 nM; IC50 (HCT-15): 250 nM; IC50 (SW480): 100 nM
O=c1nc2n(c3c1CN(Cc1ccccc1)CC3)CCN2Cc1ccco1	1760	> 10000	–
Cc1ccccc1CN1CCn2c1nc(=O)c1c2CCN(C(=O)c2ccccc2)C1	> 10000	> 10000	–
CCN1CCn2c1nc(=O)c1c2CCN(Cc2ccccc2)C1	> 10000	> 10000	–
Cc1cccc(CN2CCc3c(c(=O)nc4n3CCN4Cc3ccccc3C)C2)c1	510	1500	–
O=c1nc2n(c3c1CN(Cc1ccccc1)CC3)CCN2Cc1ccncc1	1130	> 10000	–
Cc1ccccc1CN1CCn2c1nc(=O)c1c2CCN(CC2CC2)C1	> 10000	> 10000	–
O=c1nc2n(c3c1CN(Cc1ccccc1)CC3)CCN2CCc1ccccc1	420	> 10000	–
COc1ccc(CN2CCn3c2nc(=O)c2c3CCN(Cc3ccccc3)C2)cc1	500	1160	–
O=c1nc2n(c3c1CN(Cc1ccccc1)CC3)CCN2Cc1ccc(F)cc1	130	80	IC50 (HT-29): 400 nM; IC50 (SW-620): 190 nM; IC50 (DLD-1): 90 nM; IC50 (HCT-15): 210 nM; IC50 (SW480): 170 nM
Cc1ccccc1CN1CCn2c1nc(=O)c1c2CCN(CC2CCCCC2)C1	2410	> 10000	–
Cc1ccccc1CN1CCn2c1nc(=O)c1c2CCN(Cc2cccc(C#N)c2)C1	580	500	–
O=c1nc2n(c3c1CN(Cc1ccccc1)CC3)CCN2c1ccccc1	1040	> 10000	–
CC(C)CCN1CCn2c1nc(=O)c1c2CCN(Cc2ccccc2)C1	450	4200	–
O=c1nc2n(c3c1CN(Cc1ccccc1)CC3)CCN2Cc1ccc(F)cc1F	160	100	IC50 (HT-29): 80 nM; IC50 (SW-620): 90 nM; IC50 (DLD-1): 90 nM; IC50 (HCT-15): 120 nM; IC50 (SW480): 120 nM
O=c1nc2n(c3c1CN(Cc1ccccc1)CC3)CCN2Cc1ccc(Br)cc1	400	550	–
CN1CCn2c1nc(=O)c1c2CCN(Cc2ccccc2)C1	> 10000	> 10000	–
Cc1ccccc1CN1CCn2c1nc(=O)c1c2CCN(Cc2ccccc2C#N)C1	660	> 10000	–
O=C(c1ccc(F)cc1)C1CCN(CCn2c(=O)[nH]c3ccccc3c2=O)CC1 [KETANSERIN]	–	–	t1/2 [6]: 34 min; t1/2 [4]: 18.5 min; CLint scaled at 1.5 µM [5]: 51.1 mL/min/kg
O=c1nc2n(c3c1CN(Cc1ccccc1)CC3)CCN2Cc1ccc(Br)c(F)c1	210	110	–
Cc1ccccc1CN1CCn2c1nc(=O)c1c2CCN(Cc2cccnc2)C1	1640	> 10000	–
O=c1nc2n(c3c1CN(Cc1ccccc1)CC3)CCN2Cc1cccc(Br)c1	360	610	–
Cc1ccccc1CN1CCn2c1nc(=O)c1c2CCN(c2nncs2)C1	> 10000	> 10000	–
Cc1ccccc1CN1CCn2c1nc(=O)c1c2CCN(CCc2ccccc2)C1	1090	6010	–
